In patent publication US4871852A, “Quinoline-carboxylic acid derivatives” (Daiichi Seiyaku Co., Ltd., priority 1984, dated 1989):
≈ marks a conversion by molar mass, not a printed value. Read-outs that look alike come from different tables or passages of the source.

How the values were obtained:
[1] = test system: Staphylococcus epidermidis 56556; experiment: Minimum Inhibitory Concentration (standard method of the Japan Society of Chemotherapy); format: cell-based; details: read-out: Minimum Inhibitory Concentration (MIC)
Experimental: (§1) Determined by the standard method of the Japan Society of Chemotherapy: i
(§2) MullerHinton bouillon, 10^6 /ml of bacteria were seeded and incubated
(§3) at 37° C. for 18 hours.

[2] = test system: Pseudomonas cepacia IID 1340; experiment: as above; format: cell-based; details: Burkholderia cepacia, read-out: Minimum Inhibitory Concentration (MIC)
Experimental: as §1, §2, §3

[3] = test system: Streptococcus faecalis ATCC 19433; experiment: as above; format: cell-based; details: Enterococcus faecalis, read-out: Minimum Inhibitory Concentration (MIC)
Experimental: as §1, §2, §3

Escherichia coli NIHJ = experiment: as above; format: cell-based; details: Muller-Hinton bouillon, 10^6/ml bacteria, 37° C., 18 hours
Experimental: as §1, §2, §3

[4] = test system: Pseudomonas maltophilia IID 1275; experiment: as above; format: cell-based; details: Stenotrophomonas maltophilia, read-out: Minimum Inhibitory Concentration (MIC)
Experimental: as §1, §2, §3

[5] = test system: Pseudomonas aeruginosa 2131; experiment: as above; format: cell-based; details: read-out: Minimum Inhibitory Concentration (MIC)
Experimental: as §1, §2, §3

[6] = test system: Staphylococcus aureus Smith; experiment: as above; format: cell-based; details: read-out: Minimum Inhibitory Concentration (MIC)
Experimental: as §1, §2, §3

Proteus vulgaris 3167 = experiment: as above; format: cell-based; details: read-out: Minimum Inhibitory Concentration (MIC)
Experimental: as §1, §2, §3

[7] = test system: Serratia marcessens 13001; experiment: as above; format: cell-based; details: Muller-Hinton bouillon, 10^6/ml bacteria, 37° C., 18 hours
Experimental: as §1, §2, §3

[8] = test system: gram-positive and gram-negative bacteria; experiment: antibacterial activity (statement in words); format: cell-based
[9] = pharmacokinetic properties: blood level, intestinal absorption (statement in words); format: in vivo; details: in comparison with cyprofloxacin
[10] = Staphylococcus epidermidis 56556, Muller-Hinton bouillon, 10^6/ml bacteria, 37° C., 18 hours
[11] = IID1340, Pseudomonas cepacia IID 1340, Muller-Hinton bouillon, 10^6/ml bacteria, 37° C., 18 hours
[12] = ATCC19433, Streptococcus faecalis ATCC 19433, Muller-Hinton bouillon, 10^6/ml bacteria, 37° C., 18 hours
[13] = IID1275, Pseudomonas maltophilia IID 1275, Muller-Hinton bouillon, 10^6/ml bacteria, 37° C., 18 hours
[14] = Pseudomonas aeruginosa 2131, Muller-Hinton bouillon, 10^6/ml bacteria, 37° C., 18 hours
[15] = Staphylococcus aureus Smith, Muller-Hinton bouillon, 10^6/ml bacteria, 37° C., 18 hours
[16] = Proteus vulgaris 3167, Muller-Hinton bouillon, 10^6/ml bacteria, 37° C., 18 hours

Compound | MIC ([1]; Staphylococcus epidermidis, 56556, 18 h) | MIC ([2]; IID1340, 18 h) | MIC ([3]; ATCC19433, 18 h) | MIC (Escherichia coli NIHJ) | MIC ([4]; IID1275, 18 h) | MIC ([5]; Pseudomonas aeruginosa, 2131, 18 h) | MIC ([6]; Staphylococcus aureus, 18 h) | MIC (Proteus vulgaris 3167; Proteus vulgaris, 3167, 18 h) | MIC [7] | MIC [1, 10] | MIC [2, 11] | MIC [3, 12] | MIC [4, 13] | MIC [5, 14] | MIC [6, 15] | MIC (Proteus vulgaris 3167; [16]) | antibacterial activity [8] | blood level [9] | intestinal absorption [9]
O=C(O)c1cn(C2CC2)c2cc(N3CCNCC3)c(F)cc2c1=O [Ba-2, 1-cyclopropyl-6-fluoro-1,4-dihydro-7-(1-piperazinyl)-4-oxoquinoline-3-carboxylic acid, reference compound] | 0.2 µg/mL (≈ 0.604 µM) | 3.13 µg/mL (≈ 9.45 µM) | 0.78 µg/mL (≈ 2.35 µM) | ≤ 0.05 µg/mL | 0.78 µg/mL (≈ 2.35 µM) | ≤ 0.05 µg/mL | 0.1 µg/mL (≈ 0.302 µM) | ≤ 0.05 µg/mL | ≤ 0.05 µg/mL | – | – | – | – | – | – | – | – | – | –
O=C(O)c1cn(C2CC2)c2c(F)c(N3CCNCC3)c(F)cc2c1=O [Ba-4, 1cyclopropyl-6,8-difluoro-1,4-dihydro-7-(1-piperazinyl)-4-oxoquinoline-3-carboxylic acid, reference compound] | – | – | – | ≤ 0.05 µg/mL | – | – | – | – | ≤ 0.05 µg/mL | 0.2 µg/mL (≈ 0.573 µM) | 0.39 µg/mL (≈ 1.12 µM) | 0.78 µg/mL (≈ 2.23 µM) | 0.39 µg/mL (≈ 1.12 µM) | ≤ 0.05 µg/mL | 0.2 µg/mL (≈ 0.573 µM) | ≤ 0.05 µg/mL | – | – | –
CN1CCN(c2c(F)cc3c(=O)c(C(=O)O)cn(C4CC4)c3c2F)CC1 [Ba-3, 1cyclopropyl-6,8-difluoro-1,4-dihydro-7-(4-methyl-1-piperazinyl)-4-oxoquinoline-3-carboxylic acid, reference compound] | – | – | – | ≤ 0.05 µg/mL | – | – | – | – | ≤ 0.05 µg/mL | 0.2 µg/mL (≈ 0.55 µM) | 0.78 µg/mL (≈ 2.15 µM) | 0.78 µg/mL (≈ 2.15 µM) | ≤ 0.05 µg/mL | 0.2 µg/mL (≈ 0.55 µM) | 0.2 µg/mL (≈ 0.55 µM) | ≤ 0.05 µg/mL | – | – | –
CN1CCN(c2cc3c(cc2F)c(=O)c(C(=O)O)cn3C2CC2)CC1 [Ba-1, 1cyclopropyl-6-fluoro-1,4-dihydro-7-(4-methyl-1-piperazinyl)-4-oxoquinoline-3-carboxylic acid, reference compound] | – | – | – | ≤ 0.05 µg/mL | – | – | – | – | 0.1 µg/mL (≈ 0.29 µM) | 0.39 µg/mL (≈ 1.13 µM) | 0.78 µg/mL (≈ 2.26 µM) | 0.78 µg/mL (≈ 2.26 µM) | 0.2 µg/mL (≈ 0.579 µM) | 0.1 µg/mL (≈ 0.29 µM) | 0.2 µg/mL (≈ 0.579 µM) | ≤ 0.05 µg/mL | – | – | –
CN1CCN(c2c(F)cc3c(=O)c(C(=O)O)cn([C@@H]4C[C@@H]4F)c3c2F)CC1 (relative stereo) [Ib-1, 1-(2-fluorocyclopropyl)-6,8-difluoro-1,4-dihydro-7-(4-methyl-1-piperazinyl)-4-oxoquinoline-3-carboxylic acid] | – | – | – | ≤ 0.05 µg/mL | – | – | – | – | ≤ 0.05 µg/mL | 0.2 µg/mL (≈ 0.524 µM) | 0.78 µg/mL (≈ 2.05 µM) | 0.78 µg/mL (≈ 2.05 µM) | 0.1 µg/mL (≈ 0.262 µM) | 0.1 µg/mL (≈ 0.262 µM) | 0.1 µg/mL (≈ 0.262 µM) | ≤ 0.05 µg/mL | – | – | –
CN1CCN(c2cc3c(cc2F)c(=O)c(C(=O)O)cn3[C@@H]2C[C@@H]2F)CC1 (relative stereo) [Ia-1, 1-(cis-2-fluorocyclopropyl)-6-fluoro-1,4-dihydro-7-(4-methyl-1-piperazinyl)-4-oxoquinoline-3-carboxylic acid] | – | – | – | ≤ 0.05 µg/mL | – | – | – | – | ≤ 0.05 µg/mL | 0.1 µg/mL (≈ 0.275 µM) | 0.2 µg/mL (≈ 0.55 µM) | 0.78 µg/mL (≈ 2.15 µM) | 0.2 µg/mL (≈ 0.55 µM) | 0.2 µg/mL (≈ 0.55 µM) | ≤ 0.05 µg/mL | ≤ 0.05 µg/mL | strong antibacterial activity | high blood level | good intestinal absorption
O=C(O)c1cn([C@@H]2C[C@@H]2F)c2c(F)c(N3CCNCC3)c(F)cc2c1=O (relative stereo) [Ib-2, 1-(2-fluorocyclopropyl)-6,8-difluoro-1,4-dihydro-7-(1-piperazinyl)-4-oxoquinoline-3-carboxylic acid] | – | – | – | ≤ 0.05 µg/mL | – | – | – | – | ≤ 0.05 µg/mL | 0.2 µg/mL (≈ 0.544 µM) | 1.56 µg/mL (≈ 4.25 µM) | 1.56 µg/mL (≈ 4.25 µM) | 0.78 µg/mL (≈ 2.12 µM) | ≤ 0.05 µg/mL | 0.1 µg/mL (≈ 0.272 µM) | ≤ 0.05 µg/mL | – | – | –
O=C(O)c1cn([C@@H]2C[C@@H]2F)c2cc(N3CCNCC3)c(F)cc2c1=O (relative stereo) [Ia-2, 1-(cis-2-fluorocyclopropyl)-6-fluoro-1,4-dihydro-7-(1-piperazinyl)-4-oxoquinoline-3-carboxylic acid] | – | – | – | ≤ 0.05 µg/mL | – | – | – | – | ≤ 0.05 µg/mL | 0.2 µg/mL (≈ 0.573 µM) | 1.56 µg/mL (≈ 4.47 µM) | 1.56 µg/mL (≈ 4.47 µM) | 0.78 µg/mL (≈ 2.23 µM) | ≤ 0.05 µg/mL | 0.1 µg/mL (≈ 0.286 µM) | ≤ 0.05 µg/mL | – | – | –
